Source: US20230364057A1, “BACTERIAL DNA GYRASE INHIBITORS AND METHODS OF USE THEREOF” (THE FLORIDA INTERNATIONAL UNIVERSITY BOARD OF TRUSTEES, priority 2022, published 2023)
Converted amounts (≈) assume the structure as drawn.

How the values were obtained:
B. subtilis (ATCC 6633) = test: Minimum inhibitory concentration, broth microdilution; conditions: Bacillus subtilis, ATCC6633, read-out: Minimum Inhibitory Concentration B.subtilis
E. coli DNA gyrase [1] = biological target: T1, E. coli DNA gyrase (Escherichia coli (strain K12), UniProt P0AES4+P0AES6); test: biochemical; assay type: biochemical; conditions: for IC50: bin of Table 2
E. coli DNA gyrase [2] = biological target: T1, E. coli DNA gyrase; test: Agarose gel-based DNA gyrase inhibition assay; assay type: biochemical
Experimental: 100 ng of DNA gyrase was used to supercoil the rx pAB1 in the presence of different concentrations of a gyrase inhibitor. […] Samples were analyzed by electrophoresis in 1% w/v agarose gels followed by ethidium bromide staining and photographed under UV light.

MRSA = test: Minimum inhibitory concentration, broth microdilution; conditions: Staphylococcus aureus, MRSA, read-out: Minimum Inhibitory Concentration S.aureus MRSA
Experimental: (§1) Antibacterial minimum inhibitory concentrations (MICs) were obtained from three independent experiments using broth microdilution methods in 96-well plates according to Clinical and Laboratory Standards Institute guidelines. Cells were culture from singles colonies in MHIIB medium for 24 h at 37° C. in agitation (200 RPM). The cultures were then diluted using the same media to reach an OD600 of 0.1. Then, 50 µL of the diluted cultures were added to the plates holding 50 µL of serially diluted compounds in MHIIB. The plates were incubated at 37° C. for 20 h. The starting inoculum was fixated to 10^5 colony-forming units per ml.

S. aureus (ATCC 14775) = test: as above; conditions: Staphylococcus aureus, ATCC14775, read-out: Minimum Inhibitory Concentration S.aureus
Experimental: as §1

Row | SMILES | inhibition of E. coli DNA gyrase activities (E. coli DNA gyrase [2]; 50 µM of compounds) | inhibition of E. coli DNA gyrase activities (E. coli DNA gyrase [2]; 200 µM of compounds) | IC50 (E. coli DNA gyrase [1]; IC50 (50-200 µM)) [µM] | other results
1 | Cc1cc(/C=C2\SC(=S)N=C2O)c(C)n1-c1cccc(O)c1 [Compound 21] | completely inhibited | completely inhibited |  | MIC (B. subtilis (ATCC 6633)): 100 µM (≈ 33 µg/mL); IC50 (E. coli DNA gyrase [1]; IC50 ([…]-50 µM)): 25 to 50 µM
2 | O=C(O)CCCCCN1C(=O)/C(=C\c2ccc(-c3ccc(Cl)cc3)o2)SC1=S [Compound 36] | completely inhibited | completely inhibited |  | MIC (B. subtilis (ATCC 6633)): 12.5 µM (≈ 5.45 µg/mL)
3 | O=C(O)CCCN1C(=O)C(=Cc2ccc(-c3nc4ccccc4s3)o2)SC1=S [Compound 41] | completely inhibited | completely inhibited |  | MIC (B. subtilis (ATCC 6633)): 6.25 µM (≈ 2.69 µg/mL)
4 | COC(=O)c1c(NC(=O)CC2Nc3ccccc3NC2=O)sc(C)c1C (stereo not drawn) [Compound 55] |  | almost completely inhibited | 50 to 200 | MIC (MRSA): 25 µM (≈ 9.34 µg/mL)
5 | CCOC(=O)C1=C(Nc2ccc(C)cc2)S/C(=C\c2ccc(-c3ccccc3C(=O)O)o2)C1=O [Compound 60] |  | completely inhibited | 50 to 200 | 
6 | O=C1/C(=C/c2ccc(O)cc2)SC(=S)N1CC1CCCO1 (stereo not drawn) [Compound 61] |  | almost completely inhibited | 50 to 200 | 
7 | O=C(O)CC(C(=O)O)N1C(=O)/C(=C/c2ccc(-c3nc4ccccc4s3)o2)SC1=S (stereo not drawn) [Compound 62] | almost completely inhibited | completely inhibited | 50 to 200 | 
8 | Cc1cc(/C=C(/C#N)c2nc3ccccc3[nH]2)c(C)n1-c1cc(C(=O)O)cc(C(=O)O)c1 [Compound 63] |  | completely inhibited | 50 to 200 | 
9 | Cc1cc(C(=O)Nc2ccccc2C(=O)O)ccc1NC(=O)COc1ccccc1Cl [Compound 65] |  | almost completely inhibited | 50 to 200 | 
10 | CCOC(=O)C1=C(C)NC(=O)NC1c1ccc(N2CCC(c3ccccc3)=N2)cc1 (stereo not drawn) [Compound 68] |  | almost completely inhibited | 50 to 200 | 
11 | Cc1cc(-c2csc(N)n2)c(C)n1-c1ccccc1.Cl [Compound 70] |  | completely inhibited | 50 to 200 | 
12 | O=C(O)c1cc(O)c2c(c1)C(=O)c1cccc(O)c1C2=O [Compound 82] |  | almost completely inhibited | 50 to 200 | MIC (B. subtilis (ATCC 6633)): 50 µM (≈ 14.2 µg/mL); MIC (S. aureus (ATCC 14775)): 50 µM (≈ 14.2 µg/mL)
13 | O=C(O)C1Nc2ccccc2C2C=CCC12 (stereo not drawn) [Compound 83] | almost completely inhibited | completely inhibited | 50 to 200 | inhibition of E. coli DNA gyrase activities (E. coli DNA gyrase [1]): inhibit E. coli DNA gyrase strongly
14 | c1ccc(Nc2nc(N3CCCC3)c3ccccc3n2)cc1 [Compound 102] | completely inhibited |  |  | IC50 (E. coli DNA gyrase [1]; IC50 ([…]-50 µM)): 25 to 50 µM
15 | Cc1cc2c3c(c1)C1CC=CC1C(C(=O)O)N3CC1CC=CC21 (stereo not drawn) [Compound 106] | potently inhibited |  | 50 to 200 | inhibition of E. coli DNA gyrase activities (E. coli DNA gyrase [1]): inhibit E. coli DNA gyrase strongly
16 | CNc1nnc(-c2ccc(C)cc2)c2ccccc12 [Compound 108] | completely inhibited |  |  | IC50 (E. coli DNA gyrase [1]; IC50 (15-[…] µM)): 15 to 25 µM; MIC (S. aureus (ATCC 14775)): 200 µM (≈ 49.9 µg/mL); MIC (MRSA): 200 µM (≈ 49.9 µg/mL)
17 | O=C(O)c1ccc(NN=C2c3cc(Br)ccc3NC2O)cc1 (stereo not drawn) [Compound 111] | completely inhibited |  |  | MIC (B. subtilis (ATCC 6633)): 100 µM (≈ 36.2 µg/mL)
18 | Cc1onc(-c2ccccc2)c1C(=O)Nc1sccc1C#N [Compound 112] | potently inhibited |  | 50 to 200 | 
19 | O=C(O)c1ccc(/N=N/C2C(O)=Nc3ccc(Cl)cc32)cc1 (stereo not drawn) [Compound 126] | completely inhibited |  |  | MIC (B. subtilis (ATCC 6633)): 100 µM (≈ 31.6 µg/mL); MIC (S. aureus (ATCC 14775)): 100 µM (≈ 31.6 µg/mL); MIC (MRSA): 100 µM (≈ 31.6 µg/mL)
20 | C(=Cc1ccco1)c1nc2ccccc2[nH]1 [Compound 129] | potently inhibited |  | 50 to 200 | 
21 | CCOc1ccc(S(=O)(=O)Nc2nc3ccccc3nc2Nc2ccc(N3CCOCC3)cc2)cc1 [Compound 130] | potently inhibited |  | 50 to 200 | 
22 | N#CC(C#N)=C1C=CC=CN1C(=Cc1ccccc1)C(=O)c1cccs1 [Compound 131] | potently inhibited |  | 50 to 200 | 
23 | CCOC(=O)[C@@H]1Nc2ccc(C(=O)O)cc2[C@@H]2C=CC[C@H]12 [Compound 141] | potently inhibited |  |  | inhibition of E. coli DNA gyrase activities (E. coli DNA gyrase [1]): inhibit E. coli DNA gyrase strongly
24 | Cc1cccc(/N=C2/NC(=O)/C(=C\C=C\c3ccco3)S2)c1C [Compound 149] | completely inhibited |  |  | IC50 (E. coli DNA gyrase [1]; IC50 (15-[…] µM)): 15 to 25 µM
